Assay results as given in patent US20210040074A1 (The United States of America,as represented by the …, priority 2018, published 2021).

Key:
D5 [1] = target: T1, D5 (Homo sapiens, UniProt P21918); experiment: D5R β-arrestin recruitment assay (DiscoverX PathHunter, CHO cells); format: cell-based; parameters: host or cells: CHO-K1; settings: for D5 Beta-Arrestin: DA + 50 μM PAM, Fold Change EC50: fold change of dopamine EC50, 50 μM compound; for Dopamine D5-β-arrestin Assay: DA + 50 μM PAM, Fold Change EC50: Table 6, 50 μM compound; for DA + 50 μM PAM, Fold Change EC50: fold change of DA EC50 with 50 μM PAM, Dopamine D5-β-arrestin Assay
Method: (§1) β-arrestin Recruitment Assay. […] Following 18-24 h of incubation, the cells were treated with the indicated concentrations of compound in PBS buffer containing 0.2 mM sodium metabisulfite, and incubated at 37° C. for 90 min. DiscoverX reagent was added to cells according to the manufacturer's protocol, followed by a 60 min incubation in the dark at room temperature. Luminescence was measured on a Hamamatsu FDSS μ-Cell reader (Hamamatsu, Bridgewater, N.J.) and data were collected using the FDSS software.
Each PAM was also examined in the absence of DA as an agonist, as indicated.

D5 [2] = target: T1, D5; experiment: D5 cAMP assay; settings: fold change of dopamine EC50, 50 μM compound
Method: cAMP Accumulation Assay. Assays were performed on D1R-HEK293 (Codex Biosolutions, Gaithersburg, Md.) cells stably expressing the human D1R. HEK293 cell lines were maintained in Dulbecco's modified Eagles medium, supplemented with 10% fetal bovine serum, 100 U/ml penicillin, 100 μg/ml streptomycin, 1 mM sodium pyruvate, and 250 μg/ml G418 and incubated at 37° C., 5% CO2, and 90% humidity. […] After 18-24 h incubation at 37° C., 5% CO2, and 90% humidity, the media was removed and replaced with 5 μL/well PBS. […] Briefly, antibody and working solution was added to each well according to the manufacturer's protocol, and incubated in the dark at room temperature for 60 min. Following incubation, enzyme acceptor reagent was added to the plates and luminescence (RLU) was measured (FDSS μCell, Hamamatsu Photonics K. K., Bridgewater, N.J.) following a 3 h incubation in the dark at room temperature.

D4R = target: T2, D4R (Homo sapiens, UniProt P21917); experiment: D4 β-arrestin recruitment assay (DiscoverX PathHunter, CHO-K1 cells); format: cell-based; parameters: inferred from the same PathHunter system described for D1R and D5R; host or cells: CHO-K1; settings: for D4 Beta-Arrestin: DA + 50 μM PAM, Fold Change EC50: fold change of dopamine EC50, 50 μM compound; for Dopamine D4-β-arrestin Assay: DA + 50 μM PAM, Fold Change EC50: Table 7, 50 μM compound; for DA + 50 μM PAM, Fold Change EC50: fold change of DA EC50 with 50 μM PAM, Dopamine D4-β-arrestin Assay
T2 sequence (P21917 1-419): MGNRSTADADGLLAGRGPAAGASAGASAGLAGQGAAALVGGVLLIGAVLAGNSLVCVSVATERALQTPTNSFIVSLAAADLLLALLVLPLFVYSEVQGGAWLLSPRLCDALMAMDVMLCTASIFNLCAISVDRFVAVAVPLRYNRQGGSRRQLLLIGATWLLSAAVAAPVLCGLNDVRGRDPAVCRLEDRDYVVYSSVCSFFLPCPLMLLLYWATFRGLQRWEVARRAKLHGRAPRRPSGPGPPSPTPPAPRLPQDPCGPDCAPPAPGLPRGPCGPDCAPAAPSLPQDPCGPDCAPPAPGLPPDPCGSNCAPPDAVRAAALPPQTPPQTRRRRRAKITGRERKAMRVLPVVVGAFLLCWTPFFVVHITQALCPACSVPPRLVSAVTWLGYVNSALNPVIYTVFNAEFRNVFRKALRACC
Method: as §1, with “Assay. Agonist-mediated recruitment of β-arrestin-2 to all five DARs was determined using the DiscoveRx PathHunter complementation assay (DiscoverX Inc, Fremont, Calif.), as previously described (Free, et. al., 2014; Conroy, et. al., 2015).” for “Assay.”

human D1R = human D1R (Homo sapiens, UniProt P21728); experiment: D1R β-arrestin recruitment assay (DiscoverX PathHunter, CHO-K1 cells); settings: for Dopamine D1-β-arrestin Assay: DA + 50 μM PAM, Fold Change EC50: Table 5, 50 μM compound; for DA + 50 μM PAM, Fold Change EC50: fold change of DA EC50 with 50 μM PAM, Dopamine D1-β-arrestin Assay
Chain of human D1R (P21728 whole entry): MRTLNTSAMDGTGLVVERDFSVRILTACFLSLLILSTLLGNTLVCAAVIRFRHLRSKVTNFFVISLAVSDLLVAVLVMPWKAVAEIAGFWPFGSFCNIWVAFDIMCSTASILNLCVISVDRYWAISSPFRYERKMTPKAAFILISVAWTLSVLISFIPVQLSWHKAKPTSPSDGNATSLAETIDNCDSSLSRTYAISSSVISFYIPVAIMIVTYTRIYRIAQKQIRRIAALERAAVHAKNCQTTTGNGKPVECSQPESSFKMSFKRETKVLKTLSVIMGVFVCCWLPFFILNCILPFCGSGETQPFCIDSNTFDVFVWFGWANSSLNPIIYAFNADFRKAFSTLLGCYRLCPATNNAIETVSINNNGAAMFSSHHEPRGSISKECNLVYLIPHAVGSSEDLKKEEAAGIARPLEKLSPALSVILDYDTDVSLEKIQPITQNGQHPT
From the text: The DiscoverX PathHunter β-Arrestin Assay was used to measure β-arrestin reuitment to the D1R following the manufacturer's instructions.

T1 sequence (P21918 whole entry): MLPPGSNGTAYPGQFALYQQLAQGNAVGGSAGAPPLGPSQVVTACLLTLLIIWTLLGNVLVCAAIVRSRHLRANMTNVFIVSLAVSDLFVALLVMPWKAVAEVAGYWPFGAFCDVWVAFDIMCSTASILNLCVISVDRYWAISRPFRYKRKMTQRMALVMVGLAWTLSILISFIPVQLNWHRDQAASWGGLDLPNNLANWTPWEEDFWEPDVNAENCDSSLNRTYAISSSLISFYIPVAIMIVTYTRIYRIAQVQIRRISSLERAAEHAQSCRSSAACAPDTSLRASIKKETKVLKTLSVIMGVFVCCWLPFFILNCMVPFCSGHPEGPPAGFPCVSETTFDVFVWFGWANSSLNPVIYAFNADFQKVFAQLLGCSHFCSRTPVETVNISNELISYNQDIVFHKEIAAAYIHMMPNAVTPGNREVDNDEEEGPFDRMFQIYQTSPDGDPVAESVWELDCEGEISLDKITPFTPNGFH

Row | SMILES | Dopamine D5-β-arrestin Assay: DA + 50 μM PAM, Fold Change EC50 (D5 [1]) | Dopamine D1-β-arrestin Assay: DA + 50 μM PAM, Fold Change EC50 (human D1R) | Dopamine D4-β-arrestin Assay: DA + 50 μM PAM, Fold Change EC50 (D4R) | also measured
1 | COc1ccc(-n2c(CC3CCCCC3)nc3c(c(=O)c4ccccc4n3C)c2=O)cc1Cl [Compound 19] | – | – | – | D5 Beta-Arrestin: DA + 50 μM PAM, Fold Change EC50 (D5 [1]): 1.29; D5 cAMP: DA + 50 μM PAM, Fold Change EC50 (D5 [2]): 1.04; D4 Beta-Arrestin: DA + 50 μM PAM, Fold Change EC50 (D4R): 1.78
2 | Cn1c2ccccc2c(=O)c2c(=O)n(-c3ccc(Cl)cc3)c(CC3CCCCC3)nc21 [Compound 25] | – | – | – | D5 Beta-Arrestin: DA + 50 μM PAM, Fold Change EC50 (D5 [1]): 2.25; D4 Beta-Arrestin: DA + 50 μM PAM, Fold Change EC50 (D4R): 0.77
3 | Cc1ccc(-n2c(CC3CCCCC3)nc3c(c(=O)c4ccccc4n3C)c2=O)cc1 [Compound 26] | – | – | – | D5 Beta-Arrestin: DA + 50 μM PAM, Fold Change EC50 (D5 [1]): 1.15; D4 Beta-Arrestin: DA + 50 μM PAM, Fold Change EC50 (D4R): 1.40
4 | COc1ccc(-n2c(C3CCCCC3)nc3c(c(=O)c4ccccc4n3C)c2=O)cc1 [Compound 27] | – | – | – | D5 Beta-Arrestin: DA + 50 μM PAM, Fold Change EC50 (D5 [1]): 3.35; D4 Beta-Arrestin: DA + 50 μM PAM, Fold Change EC50 (D4R): 1.19
5 | CCCc1nc2c(c(=O)c3ccccc3n2C)c(=O)n1-c1cc(C)cc(C)c1 [R1=3,5-diMePh, R2=n-Propyl, R3=H, X=NMe] | 3.81 | 14.1 | 0.95 | –
6 | CC(C)c1nc2c(c(=O)c3ccccc3n2C)c(=O)n1-c1ccc(F)cc1 [R1=4-FPh, R2=i-Propyl, R3=H, X=NMe] | 2.44 | 1.69 | 1.76 | –
7 | Cn1c2ccccc2c(=O)c2c(=O)n(Cc3ccccc3)c(-c3ccc(F)cc3)nc21 [R1=Bn, R2=4-FPh, R3=H, X=NMe] | 6.74 | 1.32 | 1.24 | –
8 | CCCCCc1nc2c(c(=O)c3ccccc3n2C)c(=O)n1C1CCCCCC1 [R1=Cycloheptyl, R2=n-Pentyl, R3=H, X=NMe] | 3.89 | 1.12 | 1.46 | –
9 | CCCc1nc2c(c(=O)c3ccccc3n2C)c(=O)n1C1CCCCCC1 [R1=Cycloheptyl, R2=n-Propyl, R3=H, X=NMe] | 7.78 | 3.47 | 0.8 | –
10 | COc1ccc2c(=O)c3c(=O)n(-c4ccccc4)c(-c4ccc(C)cc4)nc3oc2c1 [R1=Ph, R2=4-MePh, R3=MeO, X=O] | 4.94 | 0.85 | 0.99 | –
11 | Cn1c2ccccc2c(=O)c2c(=O)n(-c3ccccc3)c(-c3ccc(C(C)(C)C)cc3)nc21 [R1=Ph, R2=4-t-BuPh, R3=H, X=NMe] | 35.49 | 1.33 | 0.8 | –
12 | CC(C)Cn1c(-c2ccco2)nc2c(c(=O)c3ccccc3n2C)c1=O [R1=i-Bu, R2=2-furyl, R3=H, X=NMe] | 17.2 | 2.06 | 1.7 | –
13 | CC(C)(C)C1CCc2c(sc(NC(=O)c3ccco3)c2C(N)=O)C1 (stereo not drawn) [R4=NH2; R5=NHCO-2-furanyl; R6=t-Bu] | – | – | – | DA + 50 μM PAM, Fold Change EC50 (D5 [1]): 1.14; DA + 50 μM PAM, Fold Change EC50 (human D1R): 2.19; DA + 50 μM PAM, Fold Change EC50 (D4R): 1.17
14 | NC(=O)c1c(NC(=O)c2cccnc2)sc2c1CCCC2 [R4=NH2; R5=NHCO-3-pyridyl; R6=H] | – | – | – | DA + 50 μM PAM, Fold Change EC50 (D5 [1]): 1.03; DA + 50 μM PAM, Fold Change EC50 (human D1R): 1.88; DA + 50 μM PAM, Fold Change EC50 (D4R): 1.21
15 | CC1CCc2c(sc(NC(=O)c3ccc(O)cc3)c2C(N)=O)C1 (stereo not drawn) [R4=NH2; R5=NHCO-4-HOPh; R6=Me] | – | – | – | DA + 50 μM PAM, Fold Change EC50 (D5 [1]): 0.87; DA + 50 μM PAM, Fold Change EC50 (human D1R): 1.76; DA + 50 μM PAM, Fold Change EC50 (D4R): 1.2
16 | Cc1ccccc1NC(=O)c1c(NC(=O)c2ccncc2)sc2c1CCC(C)C2 (stereo not drawn) [R4=NH-2-MePH; R5=NHCO-4-pyridyl; R6=Me] | – | – | – | DA + 50 μM PAM, Fold Change EC50 (D4R): 1.09
17 | Cc1ccccc1NC(=O)c1c(NC(=O)c2ccncc2)sc2c1CCC(C)C2 (stereo not drawn) [R4=NH-2-MePh; R5=NHCO-4-pyridyl; R6=Me] | – | – | – | DA + 50 μM PAM, Fold Change EC50 (D5 [1]): 0.83; DA + 50 μM PAM, Fold Change EC50 (human D1R): 2.09
